Measurements taken from patent publication US11970497B2, “Tricyclic AKR1C3 dependent KARS inhibitors” (Novartis AG, priority 2019, dated 2024).

Legend:
Experiment in all cases: Expanded lung cancer cell line proliferation assay
Format in all cases: cell-based
NCI-H524 = settings: Homo sapiens; NCI-H524, 72 h, average of PrestoBlue and Cell Titer Glo; AKR1C3 0.8 TPM; read-out: Absolute Qualified AC50
Description: (§1) Cellular Proliferation Assay to Assess Compound Activity in an Expanded Panel of 57 NRF2 Pathway Mutant and Wild Type Lung Cancer Cell Lines.
(§2) Both the PrestoBlue Cell Viability Reagent and Cell Titer Glo were multiplexed together as the final assay readout. PrestoBlue is a cell permeable resazurin-based solution that utilizes the reducing power of living cells to quantitatively measure their proliferation. Cell Titer Glo measures the amount of ATP present, an indicator of metabolically active cells.
(§3) Expanded Lung Cancer Cell Line Proliferation Assay Outline, Analysis and Profiling Results
(§4) Cells were seeded into 384 well assay plates (Greiner Bio-One, Catalog #781080) using the Thermo Scientific Matrix WellMate microplate dispenser and Thermo Scientific Matrix WellMate small bore disposable tubing cartridges (Catalog #201-30002) in 30 μl of growth media (RPMI-1640 supplemented with 10% fetal bovine serum and 1% penicillin/streptomycin) per well (1000 to 2000 cells/well depending on doubling time). Following cell plating, assay plates were placed into tissue culture incubator at 37° C./5% CO2 overnight. The next day one assay plate for each cell line was used for a Day 0 Cell Titer Glo and PrestoBlue readout. 3 μl of PrestoBlue Cell Viability Reagent (Thermo Scientific, Catalog #A13262) was added to each well and then assay plates were incubated at 37° C./5% CO2 for 30 minutes prior to fluorescence readout on the EnVision 2105 multimode plate reader (Perkin Elmer). Following the PrestoBlue readout 18 μl of Cell Titer Glo (Promega, Catalog #G7572) was then added to each well, allowing plates to incubate at room temperature for 10 minutes prior to luminescence readout on the EnVision. Compound was then added to the remaining assay plates (each cell line run in triplicates) using the Labcyte Inc Echo 555 acoustic liquid handler. Compounds were arrayed into a Labcyte Inc Echo qualified 384 well LDV microplate (Cat #LP-0200-GNF10). Compounds were serially diluted 1:3.16 to generate an 8 point dose response for a final top concentration of 1 μM. DMSO (0.3%) was used as the neutral control (NC) and MG132 (30 μM) was used as the active control (AC). 90 nl of compounds were added to 30 μl of cells using the Labcyte Inc Echo 555 acoustic liquid handler for a final DMSO assay concentration of 0.3%. Following compound addition, assay plates were spun down in a tabletop centrifuge at 500 rpm for 1 minute and then placed into tissue culture incubator at 37° C./5% CO2 for 72 h. Following the 72 h incubation, all assay plates were readout using PrestoBlue and Cell Titer Glo using the same conditions previously described for the Day 0 readout. The Day 0 readout (untreated cells) was used to compare to the 72 h DMSO treated samples on each assay plate as a way of tracking each cell line's fold growth. NC1 control based normalization was used for data analysis in Helios, which incorporates the DMSO neutral control (NC) and MG132 active control (AC) for generating dose response curves that are then used to calculate the Absolute Qualified AC50 calls for each compound and cell line.
(§5) NC1 normalization calculation model: NC1: xn=±(x−NC)/(AC−NC)
(§6) +/− is set by the inhibition type parameter setting where NC and AC are averages (mean or median) over the corresponding NC and AC well values. The Qualified Absolute AC50 values for Compound 36 and Compound 40 are listed in the table below and are represented as the average activity in both the PrestoBlue and Cell Titer Glo assay readouts.
(§7) Absolute Qualified AC50 Values Listed Below are a Representation of Each Compounds' Average Activity in Both the PrestoBlue and Cell Titer Glo Assay Readouts.

NCI-H2347 = settings: Homo sapiens; NCI-H2347, 72 h, average of PrestoBlue and Cell Titer Glo; AKR1C3 8.9 TPM; read-out: Absolute Qualified AC50
Description: as §1, §2, §3, §4, §5, §6, §7

NCI-H520 = settings: Homo sapiens; NCI-H520, 72 h, average of PrestoBlue and Cell Titer Glo; AKR1C3 608.9 TPM; read-out: Absolute Qualified AC50
Description: as §1, §2, §3, §4, §5, §6, §7

SBC5 = settings: Homo sapiens, SBC-5; SBC5, 72 h, average of PrestoBlue and Cell Titer Glo; AKR1C3 5.5 TPM; read-out: Absolute Qualified AC50
Description: as §1, §2, §3, §4, §5, §6, §7

NCI-H810 = settings: Homo sapiens; NCI-H810, 72 h, average of PrestoBlue and Cell Titer Glo; AKR1C3 52.5 TPM; read-out: Absolute Qualified AC50
Description: as §1, §2, §3, §4, §5, §6, §7

NCI-H1339 = settings: NCI-H1339, 72 h, average of PrestoBlue and Cell Titer Glo; AKR1C3 5.2 TPM; read-out: Absolute Qualified AC50
Description: as §1, §2, §3, §4, §5, §6, §7

LK2 = settings: Homo sapiens, LK-2; LK2, 72 h, average of PrestoBlue and Cell Titer Glo; AKR1C3 1107 TPM; read-out: Absolute Qualified AC50
Description: as §1, §2, §3, §4, §5, §6, §7

NCI-H2023 = settings: NCI-H2023, 72 h, average of PrestoBlue and Cell Titer Glo; AKR1C3 1424.8 TPM; read-out: Absolute Qualified AC50
Description: as §1, §2, §3, §4, §5, §6, §7

A549 = settings: Homo sapiens; A549, 72 h, average of PrestoBlue and Cell Titer Glo; AKR1C3 3017.9 TPM; read-out: Absolute Qualified AC50
Description: as §1, §2, §3, §4, §5, §6, §7

NCI-H596 = settings: Homo sapiens; NCI-H596, 72 h, average of PrestoBlue and Cell Titer Glo; AKR1C3 265.6 TPM; read-out: Absolute Qualified AC50
Description: as §1, §2, §3, §4, §5, §6, §7

DMS-53 = settings: Homo sapiens; DMS-53, 72 h, average of PrestoBlue and Cell Titer Glo; AKR1C3 59.7 TPM; read-out: Absolute Qualified AC50
Description: as §1, §2, §3, §4, §5, §6, §7

NCI-H226 = settings: Homo sapiens; NCI-H226, 72 h, average of PrestoBlue and Cell Titer Glo; AKR1C3 2.9 TPM; read-out: Absolute Qualified AC50
Description: as §1, §2, §3, §4, §5, §6, §7

NCI-H2122 = settings: Homo sapiens; NCI-H2122, 72 h, average of PrestoBlue and Cell Titer Glo; AKR1C3 1507.5 TPM; read-out: Absolute Qualified AC50
Description: as §1, §2, §3, §4, §5, §6, §7

NCI-H838 = settings: Homo sapiens; NCI-H838, 72 h, average of PrestoBlue and Cell Titer Glo; AKR1C3 233 TPM; read-out: Absolute Qualified AC50
Description: as §1, §2, §3, §4, §5, §6, §7

Row | Structure (SMILES) | AC50 (NCI-H524) | AC50 (NCI-H2347) | AC50 (NCI-H520) | AC50 (SBC5) | AC50 (NCI-H810) | AC50 (NCI-H1339) | AC50 (LK2) | AC50 (NCI-H2023) | AC50 (A549) | AC50 (NCI-H596) | AC50 (DMS-53) | AC50 (NCI-H226) | AC50 (NCI-H2122) | AC50 (NCI-H838)
1 | CN1c2ccc(F)cc2C(=O)CC12CCN(C(=O)NCc1ccc(F)c(NCCO)c1)CC2 [Example 36, 6′-fluoro-N-(4-fluoro-3-((2-hydroxyethyl)amino)benzyl)-1′-methyl-4′-oxo-3′,4′-dihydro-1′H-spiro[piperidine-4,2′-quinoline]-1-carboxamide] | > 1000 nM | > 1000 nM | > 1000 nM | > 1000 nM | > 1000 nM | > 1000 nM | > 1000 nM | 347 nM | 301 nM | 754 nM | > 1000 nM | > 1000 nM | 258 nM | > 1000 nM
2 | O=C1CC2(CCN(C(=O)NCc3ccc(F)cc3)CC2)Nc2ccc(F)cc21 [Example 40] | > 1000 nM | > 1000 nM | > 1000 nM | > 1000 nM | 983 nM | > 1000 nM | > 1000 nM | 63 nM | 56 nM | 334 nM | > 1000 nM | > 1000 nM | 56 nM | 641 nM
